# In patent US11000555B2, “Method for preparing a limax compound and therapeutic use thereof” (GUANGXI JIUFU BIOTECHNOLOGY CO., LTD, priority 2017, dated 2021):
# Marks after values point to notes of the source that are not given here.
# What was measured:
# mice [1] = assay: Oral acute toxicity test of mice (maximum dose method); type: in vivo, Kunming mice; settings: for Weight after dosing / Weight change: 14 days observation; for Weight before dosing: test group
# Experimental: The test group was given 10% the compound, 0.3 ml/10 g per dose, and the control group was given the same volume of vegetable oil. Each group was administered (ig) twice a day at 8:00 and 18:00, respectively, and fasting was completed three hours after the administration (ig). All the mice received the same volume of 0.3 ml/10 g per dose, amounting to 6 g/kg BW over 24 hours. The mice were given free access to water and food after administration. The body weight, food intake, water intake, general physiological indicators, behaviors and activities, psychological status and survival status were recorded for 14 days in consecutive, 3 times a day, after several times of observation within the 24 hours that followed the administration.
# Solubility = type: physicochemical
# mice [2] = assay: Hot plate test of analgesic effect; type: in vivo, Kunming mice; settings: for Pain threshold / Pain threshold before administration: hot plate 55° C.; for Pain threshold before administration: base line
# Experimental: Kunming mice, female, were selected. And a selection among them was conducted prior to the test. The hot plate was adjusted to 55° C.±0.5° C., the female mice were placed on the hot plate, and the duration (in seconds) required from placing the mice on the hot plate until the mice licked their feet as the normal pain threshold of the mice. All those who licked their feet within 5 s or after 30 s and jumped were abandoned. Forty qualified mice were selected and randomly divided into 4 groups: a blank control group, a low dose Compound group, a high dose Compound group, and a positive control group, 10 mice per group. The normal pain threshold of each mouse was measured repeatedly, and the average of two measurements was taken as the pre-administration pain threshold of the mouse. Each group was then administered (at doses and by delivery routes as above), 0.2 ml per 10 g body weight. The pain threshold of each group was measured 60 min and 120 min after administration. If a mouse remained unresponsive for more than 60 seconds on the hot plate, its pain threshold was calculated as 60 seconds.
# mice [3] = assay: Sleeping duration induced by a threshold dose of pentobarbital sodium; type: in vivo, Kunming mice; settings: for Sleeping duration: pentobarbital sodium 50 mg/kg ip
# Experimental: Forty Kunming mice, half males and half females, were fasted for 12 h but free to drink water. The mice were randomly divided into four groups: a blank control group, a low does Compound group (0.4 g/kg, ig), a high dose Compound group (0.8 g/kg, ig) and a positive drug control group (Estazolam, 2 mg/kg). each group of mice was administered according to the above doses (ig), and the blank control group was given the same volume of normal saline. Forty-five minutes later, each mouse was given (ip) 50 mg/kg pentobarbital sodium, and then the sleeping duration of each group of mice was recorded (taking the disappear of righting reflex after administration as the indicator of falling asleep, and the recovery of righting reflex as the end time of the sleep).
# mice [4] = assay: Inducing the mice to sleep by a subthreshold dose of pentobarbital sodium; type: in vivo, Kunming mice; settings: for Number of the mice showing disappearance of righting reflex: pentobarbital sodium 30 mg/kg ip, n = 20
# Experimental: Eighty Kunming mice, half males and half females, were fasted for 12 h but free to drink water. The mice were randomly divided into four groups: a blank control group, a low does Compound group (0.4 g/kg, ig), a high dose Compound group (0.8 g/kg, ig) and a positive drug control group (Estazolam, 2 mg/kg). each group of mice was administered according to the above doses (ig), and the blank control group was given the same volume of normal saline. Forty-five minutes later, each mouse was given (ip) 30 mg/kg pentobarbital sodium, and the number of mice falling asleep within 15 min was recorded by taking the absence of righting reflex more than 1 min as the indicator of falling asleep.
# morphine-dependent mice = assay: Therapeutic effect on naloxone-induced withdrawal symptoms of morphine-dependent mice; type: in vivo, Kunming mice; settings: for Times of jumping reactions of mice: naloxone 8.0 mg/kg ip
# Experimental: The model of morphine-dependent mice was replicated by the dose-increasing method. […] Group (1) was a blank control group, injected subcutaneously (sc) with normal saline (0.2 ml/10 g), and groups (2)˜(5) were used to replicate the model of morphine-dependent mice by the dose-increasing method.
# The administration continued for 3 days for each group. Mice were free to drink and eat. Naloxone (8.0 mg/kg, ip) was given 1 h after administrations on d1 and d3 during the treatment to induce withdrawal symptoms, and jumping reaction in 30 min and body weights before and after the inducement were observed.
# mice [5] = assay: Amphetamine-induced hyperexcitability test of mice; type: in vivo, Kunming mice
# Experimental: Forty Kunming mice, half males and half females, were fasted for 12 h but free to drink water. The mice were randomly divided into four groups: a blank control group, a low does Compound group (0.4 g/kg, ig), a high dose Compound group (0.8 g/kg, ig) and a positive drug control group (Estazolam, 2 mg/kg). The mice were placed into the YLS-1A multifunctional recorder for spontaneous activities of small animals. After 5 minutes of adaptation, the number of the mice's spontaneous activities before administration were recorded, and the recording lasted for 10 minutes. The room was kept quiet during recording, at a room temperature of 20-24° C. After this, each group of mice was administered according to the above doses, and the blank control group was given the same volume of normal saline (ig). Thirty minutes after administration, each mouse was given an intraperitoneal injection of amphetamine (8 mg/kg). Fifteen minutes later, the mice were placed in the recorder to observe and record the number of activities within 10 min.
# [6] = Female, 6 g/kg BW over 24 hours ig
# [7] = Male, 6 g/kg BW over 24 hours ig
compound,measurement,setting,value
"CC1(C)O[C@H]2CC[C@@]3(C)[C@@H]([C@@H](O)[C@H](O)[C@@H]3[C@@](C)(O)CC[C@@H]3OC(C)(C)[C@H]4CC[C@]3(C)O4)[C@]2(C)CC[C@H]1O [the compound, limaxol A]",Toxic reaction,"mice [1]; 6 g/kg BW over 24 hours ig, 14 days of observation",no toxic reaction occurred
same,Weight after dosing,mice [1]; [6],24.99 ± 1.59 g
same,Weight change,mice [1]; [6],4.06 ± 2.34 g
same,Weight before dosing,mice [1]; Female,20.93 ± 1.61 g
same,Weight after dosing,mice [1]; [7],26.60 ± 0.87 g
same,Weight change,mice [1]; [7],6.13 ± 1.46 g
same,Weight before dosing,mice [1]; Male,20.73 ± 1.79 g
same,"Visual observation of heart, liver, spleen, lung, kidney","mice [1]; after putting to death, 14 days",no abnormality was found
same,Maximum dose as multiple of the daily dose per the same body weight for a human adult,mice [1]; human adult dose 0.02 g/kg,300 times
same,Maximum dose given the mice,"mice [1]; ig, twice within 24 hours, no death",6000 mg/kg
same,LD50,"mice [1]; mouse, in vivo, po",could not be detected
same,solubility,Solubility; in acid and alkali,insoluble
same,solubility,"Solubility; in ethanol, ethyl acetate, trichloromethane (hot)",soluble
same,solubility,"Solubility; in methanol, acetone",easily soluble
same,solubility,Solubility; in trichloromethane (cold),slightly soluble
same,solubility,Solubility; in water,insoluble
same,Pain threshold,"mice [2]; 60 min, high dose 0.8 g/kg ig",27.0 ± 11.32 s
same,Pain threshold,"mice [2]; 60 min, low dose 0.4 g/kg ig",25.4 ± 10.10 s
same,Pain threshold,"mice [2]; 120 min, high dose 0.8 g/kg ig",25.9 ± 12.52 s
same,Pain threshold,"mice [2]; 120 min, low dose 0.4 g/kg ig",29.3 ± 13.41 s
same,Pain threshold before administration,mice [2]; high dose group,24.3 ± 5.51 s
same,Pain threshold before administration,mice [2]; low dose group,23.7 ± 4.95 s
same,"Analgesic effect, hot plate test","mice [2]; single administration 0.4, 0.8 g/kg, ig",no obvious analgesic effect
same,Effect on sleeping duration induced by pentobarbital sodium,"mice [3]; 0.4, 0.8 g/kg, ig",significantly prolong the sleeping duration
same,Sleeping duration,mice [3]; high dose 0.8 g/kg ig,32.8 ± 9.56*^ΔΔ min
same,Sleeping duration,mice [3]; low dose 0.4 g/kg ig,39.5 ± 11.46**^Δ min
same,"Effect on number of mice that fell asleep, sub-threshold pentobarbital sodium","mice [4]; 0.4, 0.8 g/kg, ig",increase the number of mice that fell asleep
same,Number of the mice showing disappearance of righting reflex,mice [4]; high dose 0.8 g/kg ig,8 per group
same,Number of the mice showing disappearance of righting reflex,mice [4]; low dose 0.4 g/kg ig,11 per group
same,Numbers of jumping reactions of mice (mice of n = 10),"morphine-dependent mice; d 1, high dose 0.8 g/kg ig",10
same,"Numbers of jumping reactions of mice, percentage","morphine-dependent mice; d 1, high dose 0.8 g/kg ig",100%
same,Weight change: body weights of mice before and after induced withdrawal,"morphine-dependent mice; d 1, high dose 0.8 g/kg ig",0.26 ± 0.21 g
same,Times of jumping reactions of mice,"morphine-dependent mice; d 1, high dose 0.8 g/kg ig",35.0 ± 12.28 per 30 min
same,Numbers of jumping reactions of mice (mice of n = 10),"morphine-dependent mice; d 1, low dose 0.4 g/kg ig",10
same,"Numbers of jumping reactions of mice, percentage","morphine-dependent mice; d 1, low dose 0.4 g/kg ig",100%
same,Weight change: body weights of mice before and after induced withdrawal,"morphine-dependent mice; d 1, low dose 0.4 g/kg ig",0.18 ± 0.13 g
same,Times of jumping reactions of mice,"morphine-dependent mice; d 1, low dose 0.4 g/kg ig",13.5 ± 10.29 per 30 min
same,Numbers of jumping reactions of mice (mice of n = 10),"morphine-dependent mice; d 3, high dose 0.8 g/kg ig",10
same,"Numbers of jumping reactions of mice, percentage","morphine-dependent mice; d 3, high dose 0.8 g/kg ig",100%
same,Weight change: body weights of mice before and after induced withdrawal,"morphine-dependent mice; d 3, high dose 0.8 g/kg ig",0.43 ± 0.23 g
same,Times of jumping reactions of mice,"morphine-dependent mice; d 3, high dose 0.8 g/kg ig",8.5 ± 2.68 per 30 min
same,Numbers of jumping reactions of mice (mice of n = 10),"morphine-dependent mice; d 3, low dose 0.4 g/kg ig",10
same,"Numbers of jumping reactions of mice, percentage","morphine-dependent mice; d 3, low dose 0.4 g/kg ig",100%
same,Weight change: body weights of mice before and after induced withdrawal,"morphine-dependent mice; d 3, low dose 0.4 g/kg ig",0.36 ± 0.28 g
same,Times of jumping reactions of mice,"morphine-dependent mice; d 3, low dose 0.4 g/kg ig",6.2 ± 5.86 per 30 min
same,Effect on jumping reaction during induced withdrawal,"morphine-dependent mice; ig, 0.4 and 0.8 g/kg",inhibited jumping reaction
same,Effect on weight loss of the morphine-dependent mice,"morphine-dependent mice; ig, 0.4 and 0.8 g/kg",inhibited weight loss
same,Effect on excitability induced by amphetamine,"mice [5]; 0.4, 0.8 g/kg, ig",inhibit the increase of excitability induced by morphine and amphetamine
same,"Number of activities, amphetamine-induced excitability","mice [5]; After administration, high dose 0.8 g/kg ig, amphetamine 8 mg/kg",132.6 ± 26.26**^Δ▴▴ Times per min
same,"Number of activities, amphetamine-induced excitability","mice [5]; After administration, low dose 0.4 g/kg ig, amphetamine 8 mg/kg",130.6 ± 32.11**^Δ▴ Times per min
same,"Number of activities, amphetamine-induced excitability","mice [5]; Before administration, high dose group",197.4 ± 39.30 Times per min
same,"Number of activities, amphetamine-induced excitability","mice [5]; Before administration, low dose group",192.0 ± 45.06 Times per min
